Here are results for two compounds from patent US9283242B2, “Uses of dihydro bases” (priority 2013, dated 2016).

The test system of one assay is HK82-SOS. Put plainly: REAP mutagenesis assay, HK82-SOS cells. The format is cell-based, E. coli. Conditions: (b) HK82-SOS. From the text:
(§1) All E. coli strains used in this work contain the F′ episome, which enables infection by M13 phage. GW5100 strain was used for large scale preparation of M13 phage DNA, SCS 110 (JM110, end Al) was used for amplification of progeny phage post-electroporation, and NR9050 was the strain of choice for double agar plating with X-GAL for blue-clear detection of plaques. The E. coli strains used to replicate lesion-containing phage were HK81 (as AB1157, but nalA) and HK82 (as AB1157, but nalA alkB22; AlkB-deficient).
(§2) Lesion-containing genomes were mixed with the competitor genome (80:20 molar ratio) and electroporated in triplicate into 100 μl competent cells using a 2 mm-gap cuvette and a BTX electroporator set to 2.5 kV and 125 a Typical pulse lengths were 4.9 msec. The cells were immediately transferred to 10 ml LB and an aliquot was immediately plated using the agar overlay method to verify that a minimum of 10^5 independent initial electroporation events occurred in 10 ml of culture. Incubation for 6 h at 37° C. with aeration generated the progeny phage, which were then reamplified in SCS 110 cells (10 μl overnight culture and 100 μl of the 6 h supernatant in 10 ml LB) to dilute out the residual genomic DNA used for electroporation. Single-stranded M13 progeny phage DNA was isolated from 1.4 ml of supernatant using a Q1Aprep Spin M13 Kit with final DNA suspension in 100 μl elution buffer. CRAB forward and reverse primers were used to amplify the region of interest from 15 μl per Q1Aprep elution sample in a total volume of 25 μl containing 50 pmol of each primer, 1×Pfu Turbo buffer, 1.25 U Pfu Turbo DNA polymerase and […] of each dNTP. The PCR program used 30 cycles of 67° C. (1 min) annealing and 72° C. (1 min) extensions. After purification using QIAQUICK PCR purification columns, 4 μl of the PCR product were treated with BbsI (1.5 U) and SAP (0.3 U) in a total volume of 6 μl by incubating at 37° C. for 4 h. After phosphatase inactivation, (80° C. for 5 min), the 5′ ends were then radiolabeled using [γ-^32P]-ATP (1.66 pmol, 10 μCi/μl, 6000 Ci/mmol), cold ATP (16 pmol) and 5 U of OPTIKINASE at 37° C. for 30 min. Following the kinase inactivation at 65° C. for 20 min, the labeled product was then trimmed by HaeIII (10 U in a final volume of 10 μl) at 37° C. for 2 h, and diluted 1:1 in formamide loading dye. PAGE separation on a 20% denaturing gel, run for about 3.5 h at 550 V, until the xylene cyanol dye migrated 10.5 cm, yielded two bands for each sample: an 18-mer originating from the lesion-containing genome and a 21-mer originating from the competitor genome. The gels were visualized on a phosphorimager (Typhoon 7000, GE Healthcare Life Sciences); the band intensities were quantified using IMAGEJ software (National Institutes of Health). Lesion bypass was calculated as the percentage ratio of the intensity of the 18-mer band (lesion signal) to the intensity of the 21-mer band (competitor signal).
(§3) The REAP assay methodology is identical to the CRAB assay except for the PCR primers, which amplified only the progeny DNA originating from the lesion-carrying genomes. Following electrophoresis, the 18-mer bands were excised from the gel, crushed and extracted with 200 μl water. After desalting with SEPHADEX G-50 Fine resin spin columns, the samples were lyophilized to dryness, resuspended in 5 μl containing 1 μg P1 Nuclease in 30 mM sodium acetate (pH 5.3) and 10 mM zinc chloride, and incubated at 50° C. for 1 h. One μl of each sample was then spotted onto PEI-TLC plates and separated using 200 ml of a saturated solution of (NH4)2HPO4 adjusted to pH 5.8. After 24 h of development, the TLC plates were air-dried and quantified using phosphorimagery. […]

In assay [1] the test system is HK81 (AlkB+) E. coli cells. Nature of the assay: REAP mutagenesis assay, HK81 cells. Conditions: for Mutagenicity, Average % A / Mutagenicity, Average % G / Mutagenicity, Average % T: (c) HK81. The format is cell-based.
From the text: as §1, §2, §3

Another assay deals with HK82SOS. Nature of the assay: CRAB lesion bypass assay, HK82SOS cells. The format is cell-based, E. coli. The note with it: percentage relative to unmodified control genome.
From the text: as §1
as §2, with “After purification using QIAQUICK PCR purification columns, 4 μl of the PCR product were treated with BbsI (1.5 U) and SAP (0.3 U) in a total volume of 6 μl by incubating at 37° C. for 4 h. After phosphatase inactivation, (80° C. for 5 min), the 5′ ends were then radiolabeled using [γ-^32P]-ATP (1.66 pmol, 10 μCi/μl, 6000 Ci/mmol), cold ATP (16 pmol) and 5 U of OPTIKINASE at 37° C. for 30 min. Following the kinase inactivation at 65° C. for 20 min, the labeled product was then trimmed by HaeIII (10 U in a final volume of 10 μl) at 37° C. for 2 h, and diluted 1:1 in formamide loading dye. PAGE separation on a 20% denaturing gel, run for about 3.5 h at 550 V, until the xylene cyanol dye migrated 10.5 cm, yielded two bands for each sample: an 18-mer originating from the lesion-containing genome and a 21-mer originating from the competitor genome.” left out, “signal). […]” for “signal).”

Assay [2] relates to HK82 (AlkB−) E. coli cells. The format is cell-based. The note with it: for Mutagenicity, Average % A / Mutagenicity, Average % C / Mutagenicity, Average % G / Mutagenicity, Average % T: (a) HK82; for base pairing / mutagenicity (in words): FIGS. 18C, 18E, m3C in repair deficient cells.
The subject of assay [3] is HK82 (AlkB−) E. coli cells. The format is cell-based. The note with it: for Polymerase bypass efficiency, Avg.: HK82, percentage relative to unmodified control genome, triplicate.
Setting [4] is: in vitro and in vivo replication of a single-stranded vector containing a single KP1212.

The structures appear in SMILES notation.

For `NC1=NC(=O)N([C@H]2C[C@H](O)[C@@H](CO)O2)CN1` [KP1212, 5-aza-5,6-dihydro-2′-deoxycytidine], in the assay on HK82-SOS, the “Mutagenicity, Average % A” value stood at 0.1%; the “Mutagenicity, Average % C” value was determined as 89.4%; the “Mutagenicity, Average % G” value was determined as 0.2%; the “Mutagenicity, Average % T” value is 10.3%. In addition, in assay [1], the “Mutagenicity, Average % C” value turned out to be 90.2%; the “Mutagenicity, Average % A” value was 0.2%; the “Mutagenicity, Average % G” value turned out to be 0.1%; the “Mutagenicity, Average % T” value is listed as 9.5%. Besides, the “Polymerase bypass efficiency, Avg.” value with HK82SOS was found to be 124%. In assay [2], the “Mutagenicity, Average % A” value is given as 0.0%; the “Mutagenicity, Average % C” value is 89.1%; the “Mutagenicity, Average % G” value is on record as 0.4%; the “Mutagenicity, Average % T” value amounted to 10.5%. Besides, the “base pairing / mutagenicity (in words)” value in assay [2] is “mutagenic both in vitro and in vivo”. Besides, in assay [2] (frequency of pairing with any non-G base (A)), the “in vivo mutation frequency” value was “approximately 10%”. In assay [2] (setting [4]), the “paired with A” value was 10% and the “paired with G” value is listed as 90%. Also, in assay [2] (in vivo, E. coli (FIG. 18E)), the “pairing with A in vivo” value came out at 10% and the “pairing with G in vivo” value was 90%. Also, the mutation frequency in assay [2] (observed in vitro and in vivo in this study) was 10%. Besides, the “replication block / toxicity to replication” value in assay [3] (E. coli (FIG. 18D), for m3C cells that lack AlkB) was “not to be a replication block”. Besides, the “Polymerase bypass efficiency, Avg.” value in assay [3] was 91%.
As for `Nc1ccn([C@H]2C[C@H](O)[C@@H](CO)O2)c(=O)n1` [dC, deoxycytidine], in the assay on HK82-SOS, the “Mutagenicity, Average % A” value is 0.1%; the “Mutagenicity, Average % G” value worked out at 0.0%; the “Mutagenicity, Average % T” value is reported as 0.0%. Also, in assay [1], the “Mutagenicity, Average % C” value is 99.9%; the “Mutagenicity, Average % A” value was 0.1%; the “Mutagenicity, Average % G” value is on record as 0.0%; the “Mutagenicity, Average % T” value was found to be 0.0%. Besides, the “Polymerase bypass efficiency, Avg.” value in the assay on HK82SOS came to 100%. Also, in assay [2], the “Mutagenicity, Average % A” value is on record as 0.0%; the “Mutagenicity, Average % C” value worked out at 100.0%; the “Mutagenicity, Average % G” value is recorded as 0.0%; the “Mutagenicity, Average % T” value is reported as 0.0%. In addition, in assay [2], the “base pairing / mutagenicity (in words)” value is “only pairs with G”. The “Polymerase bypass efficiency, Avg.” value in assay [3] came out at 100%.
